Source: PMC9315981, “N-Phenacyldibromobenzimidazoles—Synthesis Optimization and Evaluation of Their Cytotoxic Activity” (Molecules, 2022)

Tests used:
[1] = test system: MRC-5 (normal lung fibroblasts); experiment: MTT-based viability assay, MRC-5; assay type: cell-based; conditions: Homo sapiens, MRC5, 48 h of treatment, read-out: EC50 ± SD, MRC-5
Procedure: (§1) To evaluate the cytotoxic activity of compounds 4a–j and 5a–5j, we performed an MTT test for three tumor cell lines, i.e.,: MCF-7 (breast adenocarcinoma), A-549 (lung adenocarcinoma), CCRF-CEM (acute lymphoblastic leukemia), and one normal cell line, MRC-5 (normal lung fibroblasts). The EC50 values, describing the half maximal effective concentration of each tested compound, were calculated and are summarized in Table 4. The representative sigmoidal dose–response curves are shown in Figure S2 (see Supporting Information S2).
(§2) CCRF-CEM (ECACC 85112105) human acute lymphoblastic leukaemia and MRC-5 pd30 Human fetal lung fibroblasts (ECACC 05090501) were purchased from European Collection of Authenticated Cell Cultures, whereas A-549 (ATCC CCL 185) human lung carcinoma and MCF-7 (ATCC HTB-22) human breast adenocarcinoma cell line were purchased from American Type Culture Collection. A-549 and MCF-7 cell lines were cultured in high glucose DMEM (Biowest) supplemented with 10% fetal bovine serum (Biowest), 2 mM L-glutamine and antibiotics (100 U/mL penicillin, 100 µg/mL streptomycin). CCRF-CEM were cultured in RPMI 1640 supplemented with 10% fetal bovine serum (EuroClone), 2 mM L-glutamine and antibiotics (100 U/mL penicillin, 100 µg/mL streptomycin). MRC-5 pd30 human fibroblasts (ECACC) were cultured in MEME, Minimum Essential Medium Eagle (Merck) supplemented with 10% fetal bovine serum (Merck), 2 mM l-glutamine, antibiotics (100 U mL^−1 penicillin, 100 μg mL^−1 streptomycin, Merck) and 1% non-essential amino-acids (Merck). Cells were grown in 75 cm^2 cell culture flasks (Sarstedt, Nümbrecht, Germany), in a humidified atmosphere of CO2/air (5/95%) at 37 °C. All the experiments were performed in exponentially growing cultures. Stock solution of tested compounds were prepared in DMSO and stored in −20 °C for maximum one month. For the cytotoxicity studies, stock solutions were diluted 200-fold with the proper culture medium to obtain the final concentrations. For cytotoxicity studies 2-fold serial dilutions of the tested compounds were prepared in the proper medium in the range from 3.125 µM to 200 µM.
(§3) After incubation with the test compounds, MTT test was performed as described previously. Optical densities were measured at 570 nm using BioTek microplate reader. All measurements were carried out in a minimum of three replicates.

[2] = test system: A-549 (lung adenocarcinoma); experiment: MTT-based viability assay, A-549; assay type: cell-based; conditions: Homo sapiens, A549, 48 h of treatment, read-out: EC50 ± SD, A-549
Procedure: as §1, §2, §3

[3] = test system: MCF-7 (breast adenocarcinoma); experiment: MTT-based viability assay, MCF-7; assay type: cell-based, human; conditions: for EC50: Homo sapiens, MCF7, MTT, 48 h of treatment, read-out: EC50 ± SD, MCF-7; for SI (selectivity index), MCF-7: SI = EC50 for normal MRC-5 line/EC50 for MCF-7
Procedure: as §1, §2, §3

[4] = test system: CCRF-CEM (acute lymphoblastic leukemia); experiment: MTT-based viability assay, CCRF-CEM; assay type: cell-based, human; conditions: for EC50: Homo sapiens, CCRF-CEM, MTT, 48 h of treatment, read-out: EC50 ± SD, CCRF-CEM; for SI (selectivity index), CCRF-CEM: SI = EC50 for normal MRC-5 line/EC50 for CCRF-CEM
Procedure: as §1, §2, §3

CCRF-CEM cells = experiment: Detection of apoptosis by flow cytometry (annexin V-FITC/PI); assay type: cell-based, human; conditions: 48 h; for induction of apoptosis: annexin V binding
Procedure: CCRF-CEM cells were seeded in 24-well plates at 2 × 10^5 cells/well and treated with the tested compounds used in 15 µM, 30 µM, and 45 µM concentrations. After exposure to the examined compounds, the cells were collected, centrifugated at 200× g at 4 °C for 5 min, washed twice with cold phosphate–buffered saline (PBS), and subsequently suspended in binding buffer. Subsequently, 100-μL aliquots of the cell suspension were labelled according to the kit manufacturer’s instructions. Briefly, annexin V-fluorescein isothiocyanate, and propidium iodide (BD Biosciences, Pharmingen, San Diego, CA, USA) were added to the cell suspension, and the mixture was vortexed and then incubated for 15 min at RT in the dark. A cold binding buffer (400 μL) was then added and the cells were vortexed again and kept on ice. Flow cytometric measurements were performed within 1 h after labeling. Viable, necrotic, early, and late apoptotic cells were detected by FACSCanto II flow cytometer (BD Biosciences, San Diego, CA, USA) and analysed using BD FACSDiva software.
Figure 2 Effect of compounds 4f, 5g, and 5j on the progression of apoptosis/necrosis in CCRF-CEM. Percentage of viable, early, and late apoptotic, and necrotic cells after 48 h of treatment with the tested compounds (A). Percentage of CCRF-CEM cells in late apoptosis (B). Cells were stained with annexin V-FITC and PI (propidium iodide). Flow cytometry analyses were run on FACSCanto II flow cytometer (BD Biosciences, San Diego, CA, USA) and analysed using BD FACSDiva software. Graphs represent mean values ± s.e.m. *** p < 0.001 relative to control; ns—not significant. Statistical analysis for three to six independent replicates was performed using a one-way ANOVA analysis (GraphPad Software Inc., San Diego, CA, USA).

Compound | EC50 [1] | EC50 [2] | EC50 [3] | SI (selectivity index), MCF-7 [3] | EC50 [4] | SI (selectivity index), CCRF-CEM [4] | induction of apoptosis (CCRF-CEM cells; 45 µM) | cells in late apoptosis (CCRF-CEM cells; 30 µM, annexin V-FITC/PI) | percent of apoptotic cells (CCRF-CEM cells; 45 µM, annexin V-FITC/PI)
O=C(Cn1cnc2cc(Br)c(Br)cc21)c1ccccc1 [Compound 4a] | 51.4 ± 1.62 µM | 111 ± 11.7 µM | 37.6 ± 3.4 µM | 1.37 | 78.1 ± 5.58 µM | 0.66 | – | – | –
O=C(Cn1cnc2cc(Br)c(Br)cc21)c1ccc(F)cc1 [Compound 4b] | 56.1 ± 4.33 µM | 54.5 ± 1.58 µM | 33 ± 2.63 µM | 1.70 | 44.1 ± 3.04 µM | 1.27 | – | – | –
O=C(Cn1cnc2cc(Br)c(Br)cc21)c1ccc(Cl)cc1 [Compound 4c] | 54.24 ± 0.52 µM | 76.6 ± 3.08 µM | 49.1 ± 5.58 µM | 1.10 | 56.6 ± 4.48 µM | 0.96 | – | – | –
O=C(Cn1cnc2cc(Br)c(Br)cc21)c1ccc(Cl)cc1Cl [Compound 4e] | – | 67.98 ± 0.41 µM | 60.3 ± 6.2 µM | 0.95 | 61.1 ± 2.76 µM | 0.94 | – | – | –
O=C(Cn1cnc2cc(Br)c(Br)cc21)c1ccc(Cl)c(Cl)c1 [Compound 4f, 2-(5,6-dibromo-1H-benzimidazol-1-yl)-1-(3,4-dichlorophenyl)ethanone] | 48.5 ± 4.5 µM | 51.1 ± 2.78 µM | 26.4 ± 0.8 µM | 1.84 | 27.5 ± 2.46 µM | 1.76 | induced apoptosis effectively | – | –
O=C(Cn1cnc2cc(Br)c(Br)cc21)c1c(Cl)cc(Cl)cc1Cl [Compound 4g] | 13.7 ± 0.63 µM | > 200 µM | 36.1 ± 1.47 µM | 0.38 | – | – | – | – | –
O=C(Cn1cnc2cc(Br)c(Br)cc21)c1ccc(F)cc1F [Compound 4h] | 57.6 ± 0.71 µM | 54.1 ± 4.05 µM | 41.2 ± 3.85 µM | 1.40 | 59.9 ± 4.4 µM | 0.96 | – | – | –
O=C(Cn1cnc2cc(Br)c(Br)cc21)c1cc(F)ccc1F [Compound 4i] | 47.8 ± 12 µM | 37.9 ± 1.72 µM | 29.6 ± 2.24 µM | 1.61 | 102 ± 8.62 µM | 0.47 | – | – | –
O=C(Cn1cnc2cc(Br)c(Br)cc21)c1c(F)cc(F)cc1F [Compound 4j] | 48.8 ± 9.07 µM | 94.3 ± 6.47 µM | 37.6 ± 3.58 µM | 1.30 | 40.7 ± 1.03 µM | 1.20 | – | – | –
O=C(Cn1cnc2c(Br)cc(Br)cc21)c1ccccc1 [Compound 5a] | 57.9 ± 0.88 µM | 81.2 ± 6.68 µM | 28.4 ± 1.11 µM | 2.04 | 183 ± 7.84 µM | 0.32 | – | – | –
O=C(Cn1cnc2c(Br)cc(Br)cc21)c1ccc(F)cc1 [Compound 5b] | 49.2 ± 10.6 µM | 84.5 ± 3.09 µM | 45.93 ± 0.36 µM | 1.07 | – | – | – | – | –
O=C(Cn1cnc2c(Br)cc(Br)cc21)c1ccc(Cl)cc1 [Compound 5c] | 39.1 ± 8.41 µM | 46.7 ± 1.2 µM | 30.4 ± 2.31 µM | 1.29 | 42.5 ± 8.36 µM | 0.92 | – | – | –
O=C(Cn1cnc2c(Br)cc(Br)cc21)c1ccc(Br)cc1 [Compound 5d, 1-(4-bromophenyl)-2-(4,6-dibromo-1H-benzimidazol-1-yl)ethanone] | 45.1 ± 5.73 µM | 50.9 ± 2.84 µM | 27.8 ± 2.61 µM | 1.62 | 50.5 ± 1.52 µM | 0.89 | – | – | –
O=C(Cn1cnc2c(Br)cc(Br)cc21)c1ccc(Cl)cc1Cl [Compound 5e] | 34.4 ± 7.83 µM | 46 ± 3.42 µM | 27.4 ± 1.57 µM | 1.25 | 38.4 ± 1.39 µM | 0.89 | – | – | –
O=C(Cn1cnc2c(Br)cc(Br)cc21)c1ccc(Cl)c(Cl)c1 [Compound 5f] | 43.2 ± 12.1 µM | 40 ± 5.78 µM | 32.8 ± 1.88 µM | 1.32 | 40.6 ± 2.39 µM | 1.06 | – | – | –
O=C(Cn1cnc2c(Br)cc(Br)cc21)c1c(Cl)cc(Cl)cc1Cl [Compound 5g, 2-(4,6-dibromo-1H-benzimidazol-1-yl)-1-(2,4,6-trichlorophenyl)ethanone] | 26.9 ± 1.62 µM | 41.3 ± 3.2 µM | 24 ± 2.33 µM | 1.12 | 26.6 ± 0.31 µM | 1.01 | induced apoptosis effectively | 32% | 75.6%
O=C(Cn1cnc2c(Br)cc(Br)cc21)c1ccc(F)cc1F [Compound 5h] | – | 61.26 ± 0.45 µM | 37 ± 2.15 µM | 1.23 | 51.2 ± 1.06 µM | 0.89 | – | – | –
O=C(Cn1cnc2c(Br)cc(Br)cc21)c1cc(F)ccc1F [Compound 5i] | 48.07 ± 0.04 µM | 82.7 ± 10.6 µM | 44.8 ± 6.33 µM | 1.07 | 46.2 ± 3.24 µM | 1.04 | – | – | –
